In the NIST ThermoML archive (doi:10.1016/j.jct.2004.07.027):

Test: mn = molality of the nth substance listed, in mol/kg
Conditions: 350 kPa, Liquid, Extra sensitive DSC

C1COCCOCCOCCOCCOCCO1 [1,4,7,10,13,16-hexaoxacyclooctadecane] + O
Conditions	apparent molar heat capacity [J/K/mol]
338.15 K, m1 = 0.01001	925.2
338.15 K, m1 = 0.02001	920.5
338.15 K, m1 = 0.03002	920.9
338.15 K, m1 = 0.0401	927.9
338.15 K, m1 = 0.04995	928.1
338.15 K, m1 = 0.06015	927.8
338.15 K, m1 = 0.08002	927.2
338.15 K, m1 = 0.1224	926.44
338.15 K, m1 = 0.1472	926.89
338.15 K, m1 = 0.1935	925.61
338.15 K, m1 = 0.2925	924.48
343.15 K, m1 = 0.01001	932.5
343.15 K, m1 = 0.02001	929.1
343.15 K, m1 = 0.03002	929.3
343.15 K, m1 = 0.0401	936.1
343.15 K, m1 = 0.04995	936.3
343.15 K, m1 = 0.06015	936.3
343.15 K, m1 = 0.08002	935.5
343.15 K, m1 = 0.1224	934.88
343.15 K, m1 = 0.1472	935.27
343.15 K, m1 = 0.1935	934.03
343.15 K, m1 = 0.2925	932.93
348.15 K, m1 = 0.01001	939.9
348.15 K, m1 = 0.02001	936.3
348.15 K, m1 = 0.03002	936.4
348.15 K, m1 = 0.0401	942.7
348.15 K, m1 = 0.04995	943.1
348.15 K, m1 = 0.06015	943.5
348.15 K, m1 = 0.08002	942.4
348.15 K, m1 = 0.1224	941.88
348.15 K, m1 = 0.1472	942.17
348.15 K, m1 = 0.1935	941.03
348.15 K, m1 = 0.2925	939.88
353.15 K, m1 = 0.01001	946.2
353.15 K, m1 = 0.02001	942
353.15 K, m1 = 0.03002	942.4
353.15 K, m1 = 0.0401	949
353.15 K, m1 = 0.04995	949.2
353.15 K, m1 = 0.06015	949
353.15 K, m1 = 0.08002	948.1
353.15 K, m1 = 0.1224	947.6
353.15 K, m1 = 0.1472	947.8
353.15 K, m1 = 0.1935	946.84
353.15 K, m1 = 0.2925	945.53
358.15 K, m1 = 0.01001	951.4
358.15 K, m1 = 0.02001	946.9
358.15 K, m1 = 0.03002	947.4
358.15 K, m1 = 0.0401	954.1
358.15 K, m1 = 0.04995	954
358.15 K, m1 = 0.06015	953.6
358.15 K, m1 = 0.08002	952.9
358.15 K, m1 = 0.1224	952.29
358.15 K, m1 = 0.1472	952.42
358.15 K, m1 = 0.1935	951.41
358.15 K, m1 = 0.2925	949.82
363.15 K, m1 = 0.01001	956.3
363.15 K, m1 = 0.02001	950.6
363.15 K, m1 = 0.03002	951.5
363.15 K, m1 = 0.0401	957.7
363.15 K, m1 = 0.04995	957.7
363.15 K, m1 = 0.06015	957.3
363.15 K, m1 = 0.08002	956.5
363.15 K, m1 = 0.1224	955.71
363.15 K, m1 = 0.1472	955.85
363.15 K, m1 = 0.1935	954.72
363.15 K, m1 = 0.2925	952.93
368.15 K, m1 = 0.01001	958.6
368.15 K, m1 = 0.02001	953.5
368.15 K, m1 = 0.03002	954.4
368.15 K, m1 = 0.0401	959.7
368.15 K, m1 = 0.04995	960.2
368.15 K, m1 = 0.06015	959.9
368.15 K, m1 = 0.08002	959.2
368.15 K, m1 = 0.1224	958.26
368.15 K, m1 = 0.1472	958.12
368.15 K, m1 = 0.1935	957
368.15 K, m1 = 0.2925	954.88
373.15 K, m1 = 0.01001	959.1
373.15 K, m1 = 0.02001	955.6
373.15 K, m1 = 0.03002	955.9
373.15 K, m1 = 0.0401	960.6
373.15 K, m1 = 0.04995	961.7
373.15 K, m1 = 0.06015	961.5
373.15 K, m1 = 0.08002	960.8
373.15 K, m1 = 0.1224	959.82
373.15 K, m1 = 0.1472	959.52
373.15 K, m1 = 0.1935	958.21
373.15 K, m1 = 0.2925	955.86
378.15 K, m1 = 0.01001	960.1
378.15 K, m1 = 0.02001	955.9
378.15 K, m1 = 0.03002	957.7
378.15 K, m1 = 0.0401	960.8
378.15 K, m1 = 0.04995	962.6
378.15 K, m1 = 0.06015	962.6
378.15 K, m1 = 0.08002	961.5
378.15 K, m1 = 0.1224	960.5
378.15 K, m1 = 0.1472	960.13
378.15 K, m1 = 0.1935	958.64
378.15 K, m1 = 0.2925	956.01
383.15 K, m1 = 0.01001	960.3
383.15 K, m1 = 0.02001	956.3
383.15 K, m1 = 0.03002	959.2
383.15 K, m1 = 0.0401	959.6
383.15 K, m1 = 0.04995	962.7
383.15 K, m1 = 0.06015	962.5
383.15 K, m1 = 0.08002	961.5
383.15 K, m1 = 0.1224	960.35
383.15 K, m1 = 0.1472	959.95
383.15 K, m1 = 0.1935	958.25
383.15 K, m1 = 0.2925	955.31
388.15 K, m1 = 0.01001	958.8
388.15 K, m1 = 0.02001	955.7
388.15 K, m1 = 0.03002	959.9
388.15 K, m1 = 0.0401	956.7
388.15 K, m1 = 0.04995	962.3
388.15 K, m1 = 0.06015	961.8
388.15 K, m1 = 0.08002	960.8
388.15 K, m1 = 0.1224	959.65
388.15 K, m1 = 0.1472	959.06
388.15 K, m1 = 0.1935	957.22
388.15 K, m1 = 0.2925	954.17
393.15 K, m1 = 0.01001	958.8
393.15 K, m1 = 0.02001	954.7
393.15 K, m1 = 0.03002	967.1
393.15 K, m1 = 0.0401	951.9
393.15 K, m1 = 0.04995	961.7
393.15 K, m1 = 0.06015	961.2
393.15 K, m1 = 0.08002	960.2
393.15 K, m1 = 0.1224	958.56
393.15 K, m1 = 0.1472	957.61
393.15 K, m1 = 0.1935	955.72
393.15 K, m1 = 0.2925	952.32
